The data set can be described thus: Clinical trial of compound A in conventional formulations (not published). The note with it: human, in vivo; read-out: elimination half-life (T1/2). An excerpt: These problems are considered to be raised by, for example, the changes in pharmacokinetics caused by food, and therefore, the development of a formulation capable of avoiding the effects by food intake is desired.
Taking into consideration the results of the clinical trial described above, the present inventors conducted intensive studies to design the formulation by paying attention to the control of a release rate of the drug from a formulation to the extent that the release is not affected by food intake or the like, rather than the addition of release control.
On the basis of blood concentration profiles (in a fasted state/after the intake of food) after administration of a conventional formulation (rapid release formulation), the absorption rate of the drug in a fed state was calculated by a deconvolution method to predict continuous absorption for about 4 hours.

The structures appear in SMILES notation.

For the compound `Nc1nc(CC(=O)Nc2ccc(CCNC[C@H](O)c3ccccc3)cc2)cs1` [compound A, (R)-2-(2-aminothiazol-4-yl)-4′-[2-[(2-hydroxy-2-phenylethyl)amino]ethyl]acetic acid anilide], the half-life is 1080 to 1440 min.
